Reference: US20240174618A1, “SUBSTITUTED (2-HETEROARYLOXYPHENYL)SULFONATES, SALTS THEREOF AND THEIR USE AS HERBICIDAL AGENTS” (Bayer Aktiengesellschaft, priority 2021, published 2024)

Key:
Assay type in all cases: in vivo
[1] = system: Echinochloa crus-galli (ECHCG); test: A. Herbicidal pre-emergence efficacy, ECHCG; details: scored visually after about 3 weeks vs untreated controls
In short: (§1)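 Pre-emergence soil-surface spray in sandy loam pots, WP/EC in water plus 0.5% additive, 600 L/ha. Visual % damage rating after about 3 weeks in greenhouse vs. untreated; 0% = control-like, 100% = dead plants. Rates up to 1280 g/ha.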

Kochia scoparia (KCHSC) = test: A. Herbicidal pre-emergence efficacy, KCHSC
In short: as §1

Lolium rigidum (LOLRI) = test: A. Herbicidal pre-emergence efficacy, LOLRI
In short: as §1

[2] = system: Matricaria inodora (MATIN); test: A. Herbicidal pre-emergence efficacy, MATIN
In short: as §1

Poa annua (POAAN) = test: B. Herbicidal post-emergence efficacy, POAAN
In short: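 Readout: visual % kill vs untreated, ~3 wk post-spray. Plants in sandy loam pots, treated at one-leaf stage; spray = WP/EC in water + 0.5% additive, 600 L/ha, dose ≤1280 g/ha.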

Setaria viridis (SETVI) = test: C. Herbicidal pre-emergence efficacy, SETVI; details: scored after about 3 weeks
In short: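 Pre-emergence test: formulated compounds sprayed as aqueous suspension or emulsion with 0.5% additive at 600 l/ha onto soil covering sown seeds, at rates corresponding to 320 g/ha or less. After about 3 weeks in greenhouse, efficacy scored visually as percent versus untreated controls (100% = plants dead).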

[3] = system: Amaranthus retroflexus (AMARE); test: E. Herbicidal post-emergence efficacy, AMARE
In short: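 Greenhouse weeds were treated post-emergence at the one-leaf stage, 2-3 weeks after sowing in sandy loam, with WP or EC formulations sprayed as aqueous suspension/emulsion plus 0.5% additive at 600 l/ha, at 320 g/ha or less. Efficacy was rated visually after about 3 weeks versus untreated controls (100% = dead, 0% = like control).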

[4] = pre-emergence, dosage 1280 g/ha
[5] = 80 g/ha, scored visually after about 3 weeks vs untreated controls
[6] = 320 g/ha, scored visually after about 3 weeks vs untreated controls

| Structure (SMILES) | Pre-emergence efficacy against ECHCG ([1]; 320 g/ha) | Pre-emergence efficacy against ECHCG ([1]; 1280 g/ha) | Pre-emergence efficacy against KCHSC (Kochia scoparia (KCHSC); pre-emergence, dosage 320 g/ha) | Pre-emergence efficacy against KCHSC (Kochia scoparia (KCHSC); [4]) | Pre-emergence efficacy against LOLRI (Lolium rigidum (LOLRI); dosage 320 g/ha) | Pre-emergence efficacy against LOLRI (Lolium rigidum (LOLRI); dosage 1280 g/ha) | Pre-emergence efficacy against MATIN [2, 4] | Post-emergence efficacy against POAAN (Poa annua (POAAN); 320 g/ha) | Post-emergence efficacy against POAAN (Poa annua (POAAN); 1280 g/ha) | Pre-emergence efficacy against ECHCG ([1]; 80 g/ha) | Pre-emergence efficacy against KCHSC (Kochia scoparia (KCHSC); [5]) | Post-emergence efficacy against POAAN (Poa annua (POAAN); 80 g/ha) | Pre-emergence efficacy against SETVI (Setaria viridis (SETVI); 80 g/ha) | Pre-emergence efficacy against SETVI (Setaria viridis (SETVI); 320 g/ha) | Post-emergence efficacy against AMARE in % ([3]; application rate 80 g/ha) | Post-emergence efficacy against AMARE in % ([3]; application rate 320 g/ha) | Pre-emergence efficacy against MATIN [2, 6] |
| --- | --- | --- | --- | --- | --- | --- | --- | --- | --- | --- | --- | --- | --- | --- | --- | --- | --- |
| Cc1cccc(Oc2ncc(Cl)cn2)c1OS(=O)(=O)CCC(F)(F)F [Example I-29] | 100% | 100% | 90% | 100% | 100% | 100% | 90% | 90% | 100% | – | – | – | – | – | – | – | – |
| O=S(=O)(CCCC(F)(F)F)Oc1c(Br)cccc1Oc1ncc(Cl)cn1 [Example I-30] | 100% | 100% | 100% | 100% | 90% | 100% | 100% | 90% | 100% | – | – | – | – | – | – | – | – |
| O=S(=O)(CCCCl)Oc1ccccc1Oc1ncc(Cl)cn1 [Example I-2] | 100% | 100% | 100% | 100% | 90% | 100% | 100% | 100% | 100% | 90% | 100% | 90% | 100% | 100% | 100% | 100% | – |
| O=S(=O)(CCCCl)Oc1ccccc1Oc1ncc(F)cn1 [Example I-5] | 100% | 100% | 100% | 100% | – | – | 100% | 90% | 100% | – | 100% | – | 90% | 100% | 100% | 100% | 90% |
| Cc1cccc(Oc2ncc(Cl)cn2)c1OS(=O)(=O)CCCC(F)(F)F [Example I-28, 2-[(5-Chloropyrimidin-2-yl)oxy]-6-methylphenyl 4,4,4-trifluorobutane-1-sulfonate] | 100% | 100% | 90% | 90% | 90% | 100% | 100% | 90% | 100% | 90% | – | – | – | – | – | – | – |
| CCCS(=O)(=O)Oc1ccccc1Oc1ncc(Cl)cn1 [Example I-3] | 100% | 100% | 100% | 100% | 100% | 100% | 100% | – | 90% | – | 100% | – | 100% | 100% | – | 100% | 100% |
| O=S(=O)(CCC(F)(F)F)Oc1c(Br)cccc1Oc1ncc(Cl)cn1 [Example I-31] | – | 100% | 100% | 100% | – | 100% | 90% | 90% | 100% | – | 90% | – | – | – | – | – | – |
| O=S(=O)(CCCCl)Oc1cccc(F)c1Oc1ncc(Cl)cn1 [Example I-13] | – | 100% | – | 100% | – | 90% | – | – | 100% | – | – | – | – | – | – | 80% | – |
| O=S(=O)(CC1CC1(Cl)Cl)Oc1c(F)cccc1Oc1ncc(Cl)cn1 (stereo not shown) [Example I-57] | – | 100% | 100% | 100% | – | 100% | 100% | 90% | 90% | – | – | – | – | – | – | – | 90% |
